molecular target: T1, TGF-beta receptor type-1 (Homo sapiens, UniProt P36897); experiment: Inhibition of human ALK5 by Kinase Glo luminescence assay
T1 sequence (P36897 whole entry): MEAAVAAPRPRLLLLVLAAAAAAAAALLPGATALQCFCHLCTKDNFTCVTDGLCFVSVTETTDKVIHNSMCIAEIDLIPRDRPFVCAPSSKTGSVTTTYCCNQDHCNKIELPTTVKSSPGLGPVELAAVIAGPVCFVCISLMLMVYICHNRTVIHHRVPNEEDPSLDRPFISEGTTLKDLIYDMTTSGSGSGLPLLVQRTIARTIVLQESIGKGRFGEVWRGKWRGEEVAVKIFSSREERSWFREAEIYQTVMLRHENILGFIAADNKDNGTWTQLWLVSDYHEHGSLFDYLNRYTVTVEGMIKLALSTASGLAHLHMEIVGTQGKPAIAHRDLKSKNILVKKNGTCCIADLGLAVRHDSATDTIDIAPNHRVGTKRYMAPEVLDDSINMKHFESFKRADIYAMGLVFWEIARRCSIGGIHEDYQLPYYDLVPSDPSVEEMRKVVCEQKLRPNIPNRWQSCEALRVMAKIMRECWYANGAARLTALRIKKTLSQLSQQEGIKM

| IC50 [µM] | SMILES |
| --- | --- |
| > 10 | Cc1cccc(-c2[nH]c(NCc3ccccc3F)nc2-c2ccc3[nH]ccc3c2)n1 |

molecular target: T1, TGF-beta receptor type-1; experiment: Inhibition of ALK5 in human Hs-578T cells assessed as effect of TGF-beta-induced […] phosphorylation; type: cell-based

| IC50 [µM] | SMILES |
| --- | --- |
| > 0.3 | Cc1cccc(-c2[nH]c(NCc3ccccc3F)nc2-c2ccc3[nH]ccc3c2)n1 |
| > 0.3 | Cc1cccc(-c2[nH]c(NCc3cccc(F)c3)nc2-c2ccc3c(cnn3S(C)(=O)=O)c2)n1 |

molecular target: Cytochrome P450 3A4 (Homo sapiens, UniProt P08684); experiment: Inhibition of CYP3A4 (unknown origin); type: ADME
Sequence (P08684 whole entry): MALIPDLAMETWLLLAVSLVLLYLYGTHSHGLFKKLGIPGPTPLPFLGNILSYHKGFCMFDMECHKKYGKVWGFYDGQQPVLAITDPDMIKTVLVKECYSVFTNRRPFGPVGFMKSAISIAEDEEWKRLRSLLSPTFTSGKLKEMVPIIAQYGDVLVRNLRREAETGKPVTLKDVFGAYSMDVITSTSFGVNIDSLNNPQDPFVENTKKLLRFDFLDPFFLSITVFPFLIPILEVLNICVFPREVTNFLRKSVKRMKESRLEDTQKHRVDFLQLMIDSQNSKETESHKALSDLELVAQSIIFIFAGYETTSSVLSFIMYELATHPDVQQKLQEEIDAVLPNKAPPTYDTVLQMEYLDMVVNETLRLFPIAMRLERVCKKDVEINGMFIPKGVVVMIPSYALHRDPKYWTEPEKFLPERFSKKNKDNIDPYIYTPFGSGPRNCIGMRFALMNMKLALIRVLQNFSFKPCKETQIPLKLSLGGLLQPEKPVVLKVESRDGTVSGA

| IC50 [µM] | SMILES |
| --- | --- |
| > 10 | Cc1cccc(-c2[nH]c(NCc3ccc(F)c(F)c3)nc2-c2ccc3[nH]ncc3c2)n1 |
| > 10 | Cc1cccc(-c2[nH]c(NCc3ccccc3F)nc2-c2ccc3[nH]ncc3c2)n1 |
| > 10 | Cc1cccc(-c2[nH]c(NCc3ccc(Cl)c(Cl)c3)nc2-c2ccc3[nH]ncc3c2)n1 |
| 8 | Cc1cccc(-c2[nH]c(NCc3cccc(Cl)c3F)nc2-c2ccc3[nH]ncc3c2)n1 |
| 8.7 | Cc1cccc(-c2[nH]c(NCc3ccc(Cl)cc3F)nc2-c2ccc3[nH]ncc3c2)n1 |
| > 10 | Cc1cccc(-c2[nH]c(NCc3cccc(F)c3)nc2-c2ccc3c(cnn3S(C)(=O)=O)c2)n1 |

molecular target: Cytochrome P450 2D6 (Homo sapiens, UniProt P10635); experiment: Inhibition of CYP2D6 (unknown origin); type: ADME
Sequence (P10635 whole entry): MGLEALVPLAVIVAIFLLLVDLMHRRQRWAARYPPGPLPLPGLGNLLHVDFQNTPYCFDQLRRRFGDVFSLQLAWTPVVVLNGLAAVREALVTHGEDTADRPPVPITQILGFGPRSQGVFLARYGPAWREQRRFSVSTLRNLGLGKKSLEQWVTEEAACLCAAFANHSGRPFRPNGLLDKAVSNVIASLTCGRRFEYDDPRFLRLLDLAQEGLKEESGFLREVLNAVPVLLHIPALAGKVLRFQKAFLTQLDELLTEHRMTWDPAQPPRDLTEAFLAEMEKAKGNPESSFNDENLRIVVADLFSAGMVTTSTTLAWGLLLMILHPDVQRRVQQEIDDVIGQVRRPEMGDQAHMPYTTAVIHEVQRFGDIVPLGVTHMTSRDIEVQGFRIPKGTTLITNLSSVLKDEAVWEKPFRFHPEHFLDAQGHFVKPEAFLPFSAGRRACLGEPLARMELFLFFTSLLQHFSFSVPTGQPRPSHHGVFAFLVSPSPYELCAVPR

| IC50 [µM] | SMILES |
| --- | --- |
| 4.1 | Cc1cccc(-c2[nH]c(NCc3ccc(F)c(F)c3)nc2-c2ccc3[nH]ncc3c2)n1 |
| 8.8 | Cc1cccc(-c2[nH]c(NCc3ccccc3F)nc2-c2ccc3[nH]ncc3c2)n1 |
| > 10 | Cc1cccc(-c2[nH]c(NCc3ccc(Cl)c(Cl)c3)nc2-c2ccc3[nH]ncc3c2)n1 |
| 4.8 | Cc1cccc(-c2[nH]c(NCc3cccc(Cl)c3F)nc2-c2ccc3[nH]ncc3c2)n1 |
| 6.7 | Cc1cccc(-c2[nH]c(NCc3ccc(Cl)cc3F)nc2-c2ccc3[nH]ncc3c2)n1 |
| > 10 | Cc1cccc(-c2[nH]c(NCc3cccc(F)c3)nc2-c2ccc3c(cnn3S(C)(=O)=O)c2)n1 |

molecular target: Cytochrome P450 2C19 (Homo sapiens, UniProt P33261); experiment: Inhibition of CYP2C19 (unknown origin); type: ADME
Sequence (P33261 whole entry): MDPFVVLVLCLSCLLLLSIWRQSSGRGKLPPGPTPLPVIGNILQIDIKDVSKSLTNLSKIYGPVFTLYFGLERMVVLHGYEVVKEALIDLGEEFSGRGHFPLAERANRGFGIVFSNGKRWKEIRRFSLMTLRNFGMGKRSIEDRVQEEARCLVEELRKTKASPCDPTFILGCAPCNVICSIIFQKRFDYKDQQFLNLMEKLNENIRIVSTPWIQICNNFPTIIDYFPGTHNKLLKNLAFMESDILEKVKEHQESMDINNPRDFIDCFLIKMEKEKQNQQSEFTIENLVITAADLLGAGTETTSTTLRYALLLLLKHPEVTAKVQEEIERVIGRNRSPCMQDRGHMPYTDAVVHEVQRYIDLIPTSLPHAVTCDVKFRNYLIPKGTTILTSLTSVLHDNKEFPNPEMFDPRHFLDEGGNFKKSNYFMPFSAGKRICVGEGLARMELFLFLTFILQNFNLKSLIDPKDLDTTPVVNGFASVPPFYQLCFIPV

| IC50 [µM] | SMILES |
| --- | --- |
| 4.3 | Cc1cccc(-c2[nH]c(NCc3ccc(F)c(F)c3)nc2-c2ccc3[nH]ncc3c2)n1 |
| 7.2 | Cc1cccc(-c2[nH]c(NCc3ccccc3F)nc2-c2ccc3[nH]ncc3c2)n1 |
| > 10 | Cc1cccc(-c2[nH]c(NCc3ccc(Cl)c(Cl)c3)nc2-c2ccc3[nH]ncc3c2)n1 |
| 3.6 | Cc1cccc(-c2[nH]c(NCc3cccc(Cl)c3F)nc2-c2ccc3[nH]ncc3c2)n1 |
| 3.1 | Cc1cccc(-c2[nH]c(NCc3ccc(Cl)cc3F)nc2-c2ccc3[nH]ncc3c2)n1 |
| > 10 | Cc1cccc(-c2[nH]c(NCc3cccc(F)c3)nc2-c2ccc3c(cnn3S(C)(=O)=O)c2)n1 |

molecular target: Cytochrome P450 2C9 (Homo sapiens, UniProt P11712); experiment: Inhibition of CYP2C9 (unknown origin); type: ADME
Sequence (P11712 whole entry): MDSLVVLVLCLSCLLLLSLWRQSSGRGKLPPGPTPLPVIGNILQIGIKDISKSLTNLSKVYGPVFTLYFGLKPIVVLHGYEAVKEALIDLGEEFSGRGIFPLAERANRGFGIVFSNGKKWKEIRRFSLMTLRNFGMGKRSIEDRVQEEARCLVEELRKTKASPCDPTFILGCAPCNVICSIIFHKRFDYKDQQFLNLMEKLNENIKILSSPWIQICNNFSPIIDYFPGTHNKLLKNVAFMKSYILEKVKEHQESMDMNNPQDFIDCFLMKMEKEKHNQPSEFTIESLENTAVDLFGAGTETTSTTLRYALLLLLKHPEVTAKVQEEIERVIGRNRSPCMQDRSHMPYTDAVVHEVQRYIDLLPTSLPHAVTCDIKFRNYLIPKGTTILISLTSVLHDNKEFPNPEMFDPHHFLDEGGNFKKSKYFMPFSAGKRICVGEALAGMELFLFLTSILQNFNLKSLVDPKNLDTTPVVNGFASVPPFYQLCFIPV

| IC50 [µM] | SMILES |
| --- | --- |
| 0.4 | Cc1cccc(-c2[nH]c(NCc3ccc(F)c(F)c3)nc2-c2ccc3[nH]ncc3c2)n1 |
| 1.4 | Cc1cccc(-c2[nH]c(NCc3ccccc3F)nc2-c2ccc3[nH]ncc3c2)n1 |
| > 10 | Cc1cccc(-c2[nH]c(NCc3ccc(Cl)c(Cl)c3)nc2-c2ccc3[nH]ncc3c2)n1 |
| 0.5 | Cc1cccc(-c2[nH]c(NCc3cccc(Cl)c3F)nc2-c2ccc3[nH]ncc3c2)n1 |
| 0.4 | Cc1cccc(-c2[nH]c(NCc3ccc(Cl)cc3F)nc2-c2ccc3[nH]ncc3c2)n1 |
| > 10 | Cc1cccc(-c2[nH]c(NCc3cccc(F)c3)nc2-c2ccc3c(cnn3S(C)(=O)=O)c2)n1 |

molecular target: T2, Cytochrome P450 1A2 (Homo sapiens, UniProt P05177); experiment: Inhibition of CYP1A2 (unknown origin); type: ADME
T2 sequence (P05177 whole entry): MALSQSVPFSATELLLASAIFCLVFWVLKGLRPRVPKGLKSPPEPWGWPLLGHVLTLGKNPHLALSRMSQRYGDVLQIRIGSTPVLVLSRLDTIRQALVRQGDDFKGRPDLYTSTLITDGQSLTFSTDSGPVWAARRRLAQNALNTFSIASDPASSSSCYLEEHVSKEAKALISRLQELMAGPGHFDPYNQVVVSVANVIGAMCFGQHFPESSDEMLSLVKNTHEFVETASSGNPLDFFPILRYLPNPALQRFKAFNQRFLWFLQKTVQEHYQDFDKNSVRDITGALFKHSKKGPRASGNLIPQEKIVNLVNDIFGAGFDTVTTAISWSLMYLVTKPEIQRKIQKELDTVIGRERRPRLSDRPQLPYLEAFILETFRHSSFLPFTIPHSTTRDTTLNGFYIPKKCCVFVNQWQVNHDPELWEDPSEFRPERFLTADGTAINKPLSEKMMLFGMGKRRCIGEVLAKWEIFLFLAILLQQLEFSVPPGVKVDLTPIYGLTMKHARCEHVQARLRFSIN

| IC50 [µM] | SMILES |
| --- | --- |
| 8.6 | Cc1cccc(-c2[nH]c(NCc3ccc(F)c(F)c3)nc2-c2ccc3[nH]ncc3c2)n1 |
| > 10 | Cc1cccc(-c2[nH]c(NCc3ccccc3F)nc2-c2ccc3[nH]ncc3c2)n1 |
| > 10 | Cc1cccc(-c2[nH]c(NCc3ccc(Cl)c(Cl)c3)nc2-c2ccc3[nH]ncc3c2)n1 |
| > 10 | Cc1cccc(-c2[nH]c(NCc3cccc(Cl)c3F)nc2-c2ccc3[nH]ncc3c2)n1 |
| 8.8 | Cc1cccc(-c2[nH]c(NCc3ccc(Cl)cc3F)nc2-c2ccc3[nH]ncc3c2)n1 |
| 9.4 | Cc1cccc(-c2[nH]c(NCc3cccc(F)c3)nc2-c2ccc3c(cnn3S(C)(=O)=O)c2)n1 |

molecular target: T3, Activin receptor type-1 (Homo sapiens, UniProt Q04771); experiment: Inhibition of human ALK2 by […] assay
T3 sequence (Q04771 whole entry): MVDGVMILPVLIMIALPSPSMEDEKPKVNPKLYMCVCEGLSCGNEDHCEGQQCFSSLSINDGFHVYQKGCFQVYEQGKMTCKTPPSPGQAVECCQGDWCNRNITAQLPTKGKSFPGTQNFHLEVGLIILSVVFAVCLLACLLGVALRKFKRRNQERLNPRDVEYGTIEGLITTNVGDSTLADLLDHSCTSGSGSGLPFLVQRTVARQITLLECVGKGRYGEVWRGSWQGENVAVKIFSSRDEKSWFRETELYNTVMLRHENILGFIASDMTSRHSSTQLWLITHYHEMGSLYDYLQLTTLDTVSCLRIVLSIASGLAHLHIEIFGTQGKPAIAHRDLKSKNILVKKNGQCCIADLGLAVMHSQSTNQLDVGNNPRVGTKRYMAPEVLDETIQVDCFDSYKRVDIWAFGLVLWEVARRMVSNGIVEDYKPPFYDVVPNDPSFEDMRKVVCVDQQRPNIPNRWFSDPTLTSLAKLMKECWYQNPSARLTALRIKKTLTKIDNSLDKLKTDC

| IC50 [µM] | SMILES |
| --- | --- |
| > 10 | Cc1cccc(-c2[nH]c(NCc3cccc(F)c3)nc2-c2ccc3c(cnn3S(C)(=O)=O)c2)n1 |

From ChEMBL document CHEMBL5252597, “Synthesis and biological evaluation of N-(3-fluorobenzyl)-4-(1-(methyl-d3)-1H-indazol-5-yl)-5-(6-methylpyridin-2-yl)-1H-imidazol-2-amine as a novel, potent ALK5 receptor inhibitor” (Bioorg Med Chem Lett, 2023)
